From the supplement of paper PMC6045584
± gives the standard deviation of the averaged measurements.

What was measured:
[1] = compound: O=C(CCCCCCC(=O)Nc1ccccc1)NO [VORINOSTAT]; assay: surviving fraction relative to DMSO-only wells; higher = less growth inhibition; details: exposure time: 5 days
Method in brief: (§1)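 Log-phase tumour cell lines were seeded at 250–500 cells per well in 384-well plates. After 24 hours they were exposed continuously for five days to inhibitors at 0.5, 1, 5, 10, 50, 100, 500 and 1000 nM. Viability was read by CellTiter-Glo luminescence after 10 minutes at room temperature, and surviving fraction is luminescence normalised to the median of DMSO-only wells. Each line was screened three times and kept only if replicate Pearson r >0.7 and median Z' >0.3.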

[2] = compound: C[C@@H]1CN(CC(=O)Nc2ccc3c(c2)Cc2cccc(-c4cc(=O)cc(N5CCOCC5)o4)c2S3)C[C@H](C)O1; assay: as above; details: exposure time: 5 days
Method in brief: as §1

Row | Test System | surviving fraction ([1]; 0.5 nM) | surviving fraction ([1]; 1 nM) | surviving fraction ([1]; 5 nM) | surviving fraction ([1]; 10 nM) | surviving fraction ([1]; 50 nM) | surviving fraction ([1]; 100 nM) | surviving fraction ([1]; 500 nM) | surviving fraction ([1]; 1000 nM) | surviving fraction ([2]; 0.5 nM) | surviving fraction ([2]; 1 nM) | surviving fraction ([2]; 5 nM) | surviving fraction ([2]; 10 nM) | surviving fraction ([2]; 50 nM) | surviving fraction ([2]; 100 nM) | surviving fraction ([2]; 500 nM) | surviving fraction ([2]; 1000 nM)
1 | G292 BONE | 1.02 ± 0.027 | 0.995 ± 0.029 | 0.982 ± 0.046 | 1.04 ± 0.047 | 0.979 ± 0.04 | 0.947 ± 0.036 | 0.691 ± 0.032 | 0.511 ± 0.03 | 0.9787 ± 0.009 | 1.03 ± 0.026 | 0.995 ± 0.026 | 1 ± 0.046 | 0.994 ± 0.03 | 0.977 ± 0.034 | 0.856 ± 0.053 | 0.764 ± 0.017
2 | HCC38 BREAST | 1.25 ± 0.035 | 1.25 ± 0.028 | 1.27 ± 0.15 | 1.24 ± 0.097 | 1.42 ± 0.26 | 1.23 ± 0.21 | 1.06 ± 0.066 | 0.633 ± 0.11 | 0.973 ± 0.15 | 0.988 ± 0.11 | 1.08 ± 0.19 | 1.02 ± 0.17 | 0.698 ± 0.23 | 0.631 ± 0.086 | 0.418 ± 0.12 | 0.391 ± 0.06
3 | HCC70 BREAST | 0.965 ± 0.061 | 0.963 ± 0.042 | 1 ± 0.054 | 1.02 ± 0.11 | 1.06 ± 0.094 | 0.973 ± 0.073 | 0.766 ± 0.037 | 0.496 ± 0.049 | 1.03 ± 0.038 | 1.07 ± 0.092 | 1.1 ± 0.1 | 1.14 ± 0.07 | 1.15 ± 0.044 | 1.2 ± 0.037 | 1.1 ± 0.041 | 1.07 ± 0.02
4 | HMLE3 BREAST | 0.914 ± 0.067 | 0.95 ± 0.038 | 1.11 ± 0.03 | 1.01 ± 0.095 | 1.04 ± 0.042 | 1.09 ± 0.049 | 0.982 ± 0.066 | 0.702 ± 0.073 | 1 ± 0.041 | 0.914 ± 0.069 | 0.985 ± 0.082 | 0.954 ± 0.042 | 1 ± 0.058 | 0.949 ± 0.12 | 0.918 ± 0.024 | 0.807 ± 0.047
5 | HMT3552 BREAST | 0.95 | 1.12 | 1.03 | 1.01 | 1.09 | 1.14 | 0.656 | 0.329 | 0.943 | 0.938 | 0.979 | 1.01 | 0.942 | 0.855 | 0.824 | 0.739
6 | HS578T BREAST | 0.951 ± 0.12 | 0.888 ± 0.12 | 0.922 ± 0.2 | 0.989 ± 0.11 | 0.945 ± 0.2 | 0.821 ± 0.068 | 0.569 ± 0.08 | 0.347 ± 0.034 | 0.996 ± 0.12 | 0.965 ± 0.14 | 0.861 ± 0.04 | 0.883 ± 0.052 | 0.855 ± 0.13 | 0.814 ± 0.13 | 0.867 ± 0.089 | 0.69 ± 0.042
